From the CheMixHub viscosity set
“And” between values parts separate entries of the source, which are not always exact repeats. Equal values may be shown once. ± gives the uncertainty stated by the source.

Assay: xn = mol fraction of the nth substance listed

CCOC=O + O=C1CCCO1
298.15 K, 101.33 kPa
Settings | viscosity [mPa·s]
x1 = 0.0501 | 1.571 ± 0.012
x1 = 0.0994 | 1.446 ± 0.011
x1 = 0.1504 | 1.333 ± 0.01
x1 = 0.2017 | 1.23 ± 0.01
x1 = 0.2492 | 1.143 ± 0.009
x1 = 0.3001 | 1.057 ± 0.008
x1 = 0.4017 | 0.895 ± 0.007
x1 = 0.4509 | 0.845 ± 0.007
x1 = 0.503 | 0.783 ± 0.007
x1 = 0.5488 | 0.732 ± 0.006
x1 = 0.6028 | 0.677 ± 0.006
x1 = 0.7138 | 0.576 ± 0.005
x1 = 0.7502 | 0.547 ± 0.005
x1 = 0.7894 | 0.51 ± 0.005
x1 = 0.8503 | 0.47 ± 0.004
x1 = 0.9 | 0.439 ± 0.004
x1 = 0.9501 | 0.412 ± 0.004

O=S(=O)(O)O + O=[N+]([O-])c1ccccc1
303.15 K, 101 kPa
Settings | viscosity [mPa·s]
x1 = 0.2497 | 3.5 ± 0.09
x1 = 0.4023 | 5.75 ± 0.15
x1 = 0.562 | 9.38 ± 0.25
x1 = 0.656 | 12.28 ± 0.33
x1 = 0.6792 | 12.94 ± 0.35
x1 = 0.7132 | 13.56 ± 0.37
x1 = 0.796 | 16.17 ± 0.44
x1 = 0.8755 | 18.31 ± 0.5
x1 = 0.9516 | 18.96 ± 0.51
x1 = 0.9542 | 18.56 ± 0.5
x1 = 0.9702 | 19.68 ± 0.54
x2 = 0.0128 | 19.92 ± 0.54

CCNc1ccccc1 + Oc1ccccc1
viscosity [mPa·s], 101 kPa
Settings | 298.15 K | 313.15 K | 323.15 K
x1 = 0.0794 | 8.63 ± 0.23 | 4.35 ± 0.12 | 3.14 ± 0.08
x1 = 0.1373 | 8.82 ± 0.23 | 4.53 ± 0.13 | 3.16 ± 0.08
x1 = 0.206 | 8.53 ± 0.23 | 4.34 ± 0.12 | 3.06 ± 0.08
x1 = 0.2495 | 8.18 ± 0.22 | 4.26 ± 0.12 | 3.13 ± 0.08
x1 = 0.3418 | 7.28 ± 0.19 | 3.96 ± 0.11 | 2.97 ± 0.08
x1 = 0.4372 | 5.98 ± 0.16 | 3.41 ± 0.09 | 2.54 ± 0.07
x1 = 0.5 | 5.1 ± 0.14 | 2.99 ± 0.08 | 2.15 ± 0.06
x1 = 0.5381 | 4.77 ± 0.13 | 2.78 ± 0.08 | 2.1 ± 0.06
x1 = 0.6445 | 3.68 ± 0.1 | 2.31 ± 0.06 | 1.76 ± 0.05
x1 = 0.7005 | 3.27 ± 0.09 | 2.06 ± 0.06 | 1.62 ± 0.04
x1 = 0.7565 | 2.9 ± 0.08 | 1.88 ± 0.05 | 1.54 ± 0.04
x1 = 0.8744 | 2.22 ± 0.06 | 1.55 ± 0.04 | 1.24 ± 0.03

CC(=O)O + c1ccccc1
Settings | viscosity
293.15 K, 101 kPa, x1 = 0.2158 | 0.658 ± 0.09 mPa·s
293.15 K, 101 kPa, x1 = 0.3643 | 0.684 ± 0.092 mPa·s
293.15 K, 101 kPa, x1 = 0.4322 | 0.67 ± 0.091 mPa·s
293.15 K, 101 kPa, x1 = 0.5213 | 0.684 ± 0.092 mPa·s
293.15 K, 101 kPa, x1 = 0.7321 | 0.723 ± 0.097 mPa·s
293.15 K, 101 kPa, x1 = 0.9233 | 0.808 ± 0.11 mPa·s
298.1 K, 101 kPa, x1 = 0.2 | 0.598 ± 0.041 mPa·s
298.1 K, 101 kPa, x1 = 0.4 | 0.617 ± 0.043 mPa·s
298.1 K, 101 kPa, x1 = 0.5 | 0.636 ± 0.044 mPa·s
298.1 K, 101 kPa, x1 = 0.6 | 0.672 ± 0.047 mPa·s
298.1 K, 101 kPa, x1 = 0.8 | 0.802 ± 0.055 mPa·s
298.15 K, 101 kPa, x1 = 0.2158 | 0.632 ± 0.087 mPa·s
298.15 K, 101 kPa, x1 = 0.3643 | 0.661 ± 0.09 mPa·s
298.15 K, 101 kPa, x1 = 0.4322 | 0.65 ± 0.089 mPa·s
298.15 K, 101 kPa, x1 = 0.5213 | 0.663 ± 0.09 mPa·s
298.15 K, 101 kPa, x1 = 0.7321 | 0.668 ± 0.091 mPa·s
298.15 K, 101 kPa, x1 = 0.9233 | 0.716 ± 0.096 mPa·s
298.15 K, 101.33 kPa, x2 = 0.1 | 0.9008 ± 0.009 mPa·s
298.15 K, 101.33 kPa, x2 = 0.1339 | 0.893 ± 0.005 mPa·s
298.15 K, 101.33 kPa, x2 = 0.25 | 0.7374 ± 0.0074 mPa·s and 0.754 ± 0.011 mPa·s
298.15 K, 101.33 kPa, x2 = 0.2921 | 0.734 ± 0.007 mPa·s
298.15 K, 101.33 kPa, x2 = 0.4 | 0.655 ± 0.0098 mPa·s
298.15 K, 101.33 kPa, x2 = 0.4179 | 0.666 ± 0.008 mPa·s
298.15 K, 101.33 kPa, x2 = 0.5 | 0.6298 ± 0.0063 mPa·s and 0.653 ± 0.0098 mPa·s
298.15 K, 101.33 kPa, x2 = 0.7231 | 0.597 ± 0.012 mPa·s
298.15 K, 101.33 kPa, x2 = 0.75 | 0.5983 ± 0.006 mPa·s
298.15 K, 101.33 kPa, x2 = 0.7711 | 0.596 ± 0.012 mPa·s
298.15 K, 101.33 kPa, x2 = 0.8704 | 0.591 ± 0.013 mPa·s
298.15 K, 101.33 kPa, x2 = 0.9645 | 0.594 ± 0.015 mPa·s
303.15 K, 101 kPa, x1 = 0.2158 | 0.61 ± 0.084 mPa·s
303.15 K, 101 kPa, x1 = 0.3643 | 0.628 ± 0.086 mPa·s
303.15 K, 101 kPa, x1 = 0.4322 | 0.624 ± 0.086 mPa·s
303.15 K, 101 kPa, x1 = 0.5213 | 0.642 ± 0.088 mPa·s
303.15 K, 101 kPa, x1 = 0.7321 | 0.653 ± 0.089 mPa·s
303.15 K, 101 kPa, x1 = 0.9233 | 0.71 ± 0.096 mPa·s
303.15 K, 101 kPa, x2 = 0.1603 | 0.8519 ± 0.022 mPa·s
303.15 K, 101 kPa, x2 = 0.39 | 0.6887 ± 0.018 mPa·s
303.15 K, 101 kPa, x2 = 0.7224 | 0.5822 ± 0.015 mPa·s
313.15 K, 101 kPa, x2 = 0.1603 | 0.7841 ± 0.021 mPa·s
313.15 K, 101 kPa, x2 = 0.39 | 0.6245 ± 0.017 mPa·s
313.15 K, 101 kPa, x2 = 0.7224 | 0.5111 ± 0.014 mPa·s
323.15 K, 101 kPa, x2 = 0.1603 | 0.7112 ± 0.019 mPa·s
323.15 K, 101 kPa, x2 = 0.39 | 0.5776 ± 0.015 mPa·s
323.15 K, 101 kPa, x2 = 0.7224 | 0.4939 ± 0.013 mPa·s

CCOC=O + c1ccccc1
viscosity [mPa·s], 101 kPa
Settings | x1 = 0.2 | x1 = 0.4 | x1 = 0.5 | x1 = 0.8
293.15 K | 0.558 ± 0.015 | 0.501 ± 0.014 | 0.482 ± 0.013 | 0.435 ± 0.012
303.15 K | 0.491 ± 0.013 | 0.446 ± 0.012 | 0.43 ± 0.012 | 0.391 ± 0.011
308.15 K | 0.465 ± 0.013 | 0.427 ± 0.012 | 0.409 ± 0.011 | 0.373 ± 0.01

ClCCCl + c1ccccc1
101 kPa
Settings | viscosity [mPa·s]
293.15 K, x2 = 0.09 | 0.7903 ± 0.021
293.15 K, x2 = 0.2 | 0.7512 ± 0.02
293.15 K, x2 = 0.3 | 0.7172 ± 0.019
293.15 K, x2 = 0.392 | 0.6824 ± 0.018
293.15 K, x2 = 0.525 | 0.6583 ± 0.017
293.15 K, x2 = 0.577 | 0.6545 ± 0.017
293.15 K, x2 = 0.683 | 0.634 ± 0.017
293.15 K, x2 = 0.81 | 0.636 ± 0.017
293.15 K, x2 = 0.9 | 0.6404 ± 0.017
298.15 K, x2 = 0.2 | 0.686 ± 0.0077
298.15 K, x2 = 0.4 | 0.634 ± 0.0067
298.15 K, x2 = 0.6 | 0.601 ± 0.0061
298.15 K, x2 = 0.8 | 0.59 ± 0.0059
313.15 K, x2 = 0.09 | 0.6098 ± 0.016
313.15 K, x2 = 0.2 | 0.5936 ± 0.016
313.15 K, x2 = 0.525 | 0.5387 ± 0.014
313.15 K, x2 = 0.81 | 0.508 ± 0.013

ClCCl + c1ccccc1
101.33 kPa
Settings | viscosity [mPa·s]
293.15 K, x1 = 0.1454 | 0.591 ± 0.015
293.15 K, x1 = 0.259 | 0.559 ± 0.015
293.15 K, x1 = 0.3662 | 0.531 ± 0.014
293.15 K, x1 = 0.4451 | 0.513 ± 0.013
293.15 K, x1 = 0.5158 | 0.498 ± 0.013
293.15 K, x1 = 0.5932 | 0.484 ± 0.013
293.15 K, x1 = 0.6593 | 0.471 ± 0.012
293.15 K, x1 = 0.714 | 0.463 ± 0.012
293.15 K, x1 = 0.764 | 0.456 ± 0.012
298.15 K, x1 = 0.2149 | 0.535 ± 0.014
298.15 K, x1 = 0.2959 | 0.514 ± 0.013
298.15 K, x1 = 0.3817 | 0.497 ± 0.013
298.15 K, x1 = 0.4921 | 0.477 ± 0.012
298.15 K, x1 = 0.5445 | 0.466 ± 0.012
298.15 K, x1 = 0.5957 | 0.458 ± 0.012
298.15 K, x1 = 0.6358 | 0.452 ± 0.012
298.15 K, x1 = 0.6923 | 0.445 ± 0.012
303.15 K, x1 = 0.1659 | 0.516 ± 0.013
303.15 K, x1 = 0.2665 | 0.494 ± 0.013
303.15 K, x1 = 0.3831 | 0.468 ± 0.012
303.15 K, x1 = 0.4907 | 0.446 ± 0.012
303.15 K, x1 = 0.5944 | 0.429 ± 0.011
303.15 K, x1 = 0.6777 | 0.419 ± 0.011
303.15 K, x1 = 0.7557 | 0.412 ± 0.011
303.15 K, x1 = 0.8164 | 0.406 ± 0.011
